*1 amine or outer side, *2 acyl side, *3 side chain or, on linkers, in order; H or OH if unused. Where a SMILES comes first, the peptide text is derived from it. Bridges are numbered along the chain shown (N, C = ends). Roman numbers before positions name the chains, in order. [ ]: non-standard residue; d: D form. Actinocin(9to1) = Cc1c2oc3c(C)ccc(C(=O)[*:1])c3nc-2c(C(=O)[*:2])c(N)c1=O; NMeV = CN[C@H](C(=O)O)C(C)C; Sar = CNCC(=O)O
Key:
Format in all cases: cell-based, human
[1] = system: TIB-202 cell line; test: cells
[2] = system: SEM cell line; test: cells
[3] = system: B1 cell line; test: cells
[4] = system: KOPN8 cell line; test: cells
[5] = system: MOLT-3 cell line; test: cells
[6] = system: MLL-rearranged leukemia cell lines (SEM, B1, KOPN8, MOLT-3, TIB-202); test: In-vitro cytotoxicity across the panel of leukemia cell lines; settings: Homo sapiens, all five MLL-rearranged cell lines

`O=C(O)CCCc1ccc(N(CCCl)CCCl)cc1` [Chlorambucil] gave an IC50 ([1]; Homo sapiens, 96 h) of 4.47 µM, an IC50 ([2]; Homo sapiens, 96 h) of 7.29 µM and an IC50 ([3]; Homo sapiens, 96 h) of 6.41 µM. The IC50 ([4]; Homo sapiens, KOPN-8, 96 h) was 3.38 µM and the IC50 ([5]; Homo sapiens, MOLT-3, 96 h) was 5.56 µM.

With `COc1c2occc2cc2ccc(=O)oc12` [Methoxsalen] the IC50 ([1]; Homo sapiens, 96 h) was > 5 µM, the IC50 ([2]; Homo sapiens, 96 h) was > 10 µM and the IC50 ([3]; Homo sapiens, 96 h) was > 10 µM. The IC50 ([4]; Homo sapiens, KOPN-8, 96 h) was > 5 µM and the IC50 ([5]; Homo sapiens, MOLT-3, 96 h) was > 10 µM.

`Oc1ncc(N(CCCl)CCCl)c(O)n1` [Uracil mustard] was tested, and the IC50 ([1]; Homo sapiens, 96 h) was 2.7 µM, the IC50 ([2]; Homo sapiens, 96 h) was 4.85 µM and the IC50 ([3]; Homo sapiens, 96 h) was 3.65 µM. For the same molecule, the IC50 ([4]; Homo sapiens, KOPN-8, 96 h) was 2.22 µM and the IC50 ([5]; Homo sapiens, MOLT-3, 96 h) was 9.66 µM.

For `Cc1ccc(-c2cc(C(F)(F)F)nn2-c2ccc(S(N)(=O)=O)cc2)cc1` [Celecoxib], the IC50 ([1]; Homo sapiens, 96 h) was > 10 µM, the IC50 ([2]; Homo sapiens, 96 h) was > 10 µM and the IC50 ([3]; Homo sapiens, 96 h) was > 10 µM. For the same molecule, the IC50 ([4]; Homo sapiens, KOPN-8, 96 h) was > 10 µM and the IC50 ([5]; Homo sapiens, MOLT-3, 96 h) was > 10 µM.

`S=P(N1CC1)(N1CC1)N1CC1` [Thiotepa] showed an IC50 ([1]; Homo sapiens, 96 h) of 5 µM, an IC50 ([2]; Homo sapiens, 96 h) of 3.78 µM and an IC50 ([3]; Homo sapiens, 96 h) of 6.38 µM. For the same molecule, the IC50 ([4]; Homo sapiens, KOPN-8, 96 h) was 1.96 µM and the IC50 ([5]; Homo sapiens, MOLT-3, 96 h) was 3.01 µM.

For `O=NN(CCCl)C(=O)NCCCl` [Carmustine], the IC50 ([1]; Homo sapiens, 96 h) was > 5 µM, the IC50 ([2]; Homo sapiens, 96 h) was > 10 µM and the IC50 ([3]; Homo sapiens, 96 h) was > 10 µM. The IC50 ([4]; Homo sapiens, KOPN-8, 96 h) was > 5 µM and the IC50 ([5]; Homo sapiens, MOLT-3, 96 h) was > 10 µM.

With `CCN(CC)CCCC(C)Nc1c2ccc(Cl)cc2nc2ccc(OC)cc12` (stereo not drawn) [Acrichine] the IC50 ([1]; Homo sapiens, 96 h) was 4.5 µM, the IC50 ([2]; Homo sapiens, 96 h) was 6.4 µM and the IC50 ([3]; Homo sapiens, 96 h) was 4.63 µM. The IC50 ([4]; Homo sapiens, KOPN-8) was 0.722 µM and the IC50 ([5]; Homo sapiens, MOLT-3, 96 h) was 4.07 µM.

`CC(C)(C#N)c1cc(Cn2cncn2)cc(C(C)(C)C#N)c1` [Anastrozole] was tested, and the IC50 ([1]; Homo sapiens, 96 h) was > 10 µM, the IC50 ([2]; Homo sapiens, 96 h) was 2.08 µM and the IC50 ([3]; Homo sapiens, 96 h) was > 10 µM. For the same molecule, the IC50 ([4]; Homo sapiens, KOPN-8, 96 h) was > 10 µM and the IC50 ([5]; Homo sapiens, MOLT-3, 96 h) was > 10 µM.

Work on `O=C1[O][Pt]2([NH][C@@H]3CCCC[C@H]3[NH]2)[O]C1=O` [Oxaliplatin] yielded an IC50 ([1]; Table S1, TIB-202, 96 hours) of 6.2 µM, an IC50 ([2]; Table S1, SEM, 96 hours) of 5.67 µM and an IC50 ([3]; Table S1, B1, 96 hours) of 3.68 µM. The IC50 ([4]; Table S1, KOPN8, 96 hours) was 0.309 µM and the IC50 ([5]; Table S1, MOLT-3, 96 hours) was 0.969 µM.

With `NC(=O)NO` [Hydroxyurea] the IC50 ([1]; Table S1, TIB-202, 96 hours) was > 5 µM, the IC50 ([2]; Table S1, SEM, 96 hours) was > 10 µM and the IC50 ([3]; Table S1, B1, 96 hours) was > 10 µM. For the same molecule, the IC50 ([4]; Table S1, KOPN8, 96 hours) was > 5 µM and the IC50 ([5]; Table S1, MOLT-3, 96 hours) was > 10 µM.

`C#Cc1cccc(Nc2ncnc3cc(OCCOC)c(OCCOC)cc23)c1` [Erlotinib] showed an IC50 ([1]; Homo sapiens, 96 h) of 6.68 µM, an IC50 ([2]; Homo sapiens, 96 h) of 1 µM and an IC50 ([3]; Homo sapiens, 96 h) of 2.98 µM. The IC50 ([4]; Homo sapiens, KOPN-8, 96 h) was 5.82 µM and the IC50 ([5]; Homo sapiens, MOLT-3, 96 h) was 5.7 µM.

In the case of `S=c1[nH]cnc2nc[nH]c12` [Mercaptopurine], the IC50 ([1]; Homo sapiens, 96 h) is reported as > 5 µM, the IC50 ([2]; Homo sapiens, 96 h) is reported as > 10 µM and the IC50 ([3]; Homo sapiens, 96 h) is reported as > 10 µM. For the same molecule, the IC50 ([4]; Homo sapiens, KOPN-8, 96 h) was > 5 µM and the IC50 ([5]; Homo sapiens, MOLT-3, 96 h) was > 10 µM.

Molecule `N[C@@H](Cc1ccc(N(CCCl)CCCl)cc1)C(=O)O` [Melphalan] has an IC50 ([1]; Homo sapiens, 96 h) of 2.2 µM, an IC50 ([2]; Homo sapiens, 96 h) of 5.8 µM and an IC50 ([3]; Homo sapiens, 96 h) of 4.08 µM. The IC50 ([4]; Homo sapiens, KOPN-8, 96 h) was 0.425 µM and the IC50 ([5]; Homo sapiens, MOLT-3, 96 h) was 1.03 µM.

`CN(C)/N=N/c1[nH]cnc1C(N)=O` [Dacarbazine] was tested, and the IC50 ([1]; Homo sapiens, 96 h) was > 10 µM, the IC50 ([2]; Homo sapiens, 96 h) was > 10 µM and the IC50 ([3]; Homo sapiens, 96 h) was > 10 µM. For the same molecule, the IC50 ([4]; Homo sapiens, KOPN-8, 96 h) was > 10 µM and the IC50 ([5]; Homo sapiens, MOLT-3, 96 h) was > 10 µM.

For `Cc1cn(-c2cc(NC(=O)c3ccc(C)c(Nc4nccc(-c5cccnc5)n4)c3)cc(C(F)(F)F)c2)cn1` [Nilotinib], the IC50 ([1]; Homo sapiens, 96 h) was < 0.01 µM, the IC50 ([2]; Homo sapiens, 96 h) was > 10 µM and the IC50 ([3]; Homo sapiens, 96 h) was < 0.01 µM. The IC50 ([4]; Homo sapiens, KOPN-8, 96 h) was > 10 µM and the IC50 ([5]; Homo sapiens, MOLT-3, 96 h) was > 10 µM.

`CNNCc1ccc(C(=O)NC(C)C)cc1` [Procarbazine] was tested, and the IC50 ([1]; Homo sapiens, 96 h) was > 5 µM, the IC50 ([2]; Homo sapiens, 96 h) was > 10 µM and the IC50 ([3]; Homo sapiens, 96 h) was > 10 µM. For the same molecule, the IC50 ([4]; Homo sapiens, KOPN-8, 96 h) was > 5 µM and the IC50 ([5]; Homo sapiens, MOLT-3, 96 h) was > 10 µM.

For `O=P(O)(O)C(O)(Cn1ccnc1)P(=O)(O)O` [Zoledronic acid], the IC50 ([1]; Homo sapiens, 96 h) was > 10 µM, the IC50 ([2]; Homo sapiens, 96 h) was > 10 µM and the IC50 ([3]; Homo sapiens, 96 h) was > 10 µM. For the same molecule, the IC50 ([4]; Homo sapiens, KOPN-8, 96 h) was > 10 µM and the IC50 ([5]; Homo sapiens, MOLT-3, 96 h) was > 10 µM.

For `CC(=O)O[C@]1(C(C)=O)CC[C@H]2[C@@H]3C=C(C)C4=CC(=O)CC[C@]4(C)[C@H]3CC[C@@]21C` [Megestrol acetate], the IC50 ([1]; Homo sapiens, 96 h) was > 5 µM, the IC50 ([2]; Homo sapiens, 96 h) was > 10 µM and the IC50 ([3]; Homo sapiens, 96 h) was > 10 µM. The IC50 ([4]; Homo sapiens, KOPN-8, 96 h) was > 5 µM and the IC50 ([5]; Homo sapiens, MOLT-3, 96 h) was > 10 µM.

For `NCCCNCCSP(=O)(O)O` [Amifostine], the IC50 ([1]; Homo sapiens, 96 h) was > 10 µM, the IC50 ([2]; Homo sapiens, 96 h) was > 10 µM and the IC50 ([3]; Homo sapiens, 96 h) was > 10 µM. The IC50 ([4]; Homo sapiens, KOPN-8, 96 h) was > 10 µM and the IC50 ([5]; Homo sapiens, MOLT-3, 96 h) was > 10 µM.

For `Cc1c2oc3c(C)ccc(C(=O)N[C@@H]4C(=O)N[C@H](C(C)C)C(=O)N5CCC[C@H]5C(=O)N(C)CC(=O)N(C)[C@@H](C(C)C)C(=O)O[C@@H]4C)c3nc-2c(C(=O)N[C@@H]2C(=O)N[C@H](C(C)C)C(=O)N3CCC[C@H]3C(=O)N(C)CC(=O)N(C)[C@@H](C(C)C)C(=O)O[C@@H]2C)c(N)c1=O` [Dactinomycin] (I: T[dV]P[Sar][NMeV] / II: T[dV]P[Sar][NMeV]; ester I:1-I:C, II:1-II:C; linker I:N-II:N via Actinocin(9to1)), the IC50 ([1]; Homo sapiens, 96 h) was < 1e-05 µM, the IC50 ([2]; Homo sapiens, 96 h) was < 0.01 µM and the IC50 ([3]; Homo sapiens, 96 h) was < 0.01 µM. For the same molecule, the IC50 [6] was < 1 µM and the IC50 ([5]; Homo sapiens, MOLT-3, 96 h) was < 0.01 µM.

In the case of `CN(C)c1nc(N(C)C)nc(N(C)C)n1` [Altretamine], the IC50 ([1]; Homo sapiens, 96 h) is reported as > 10 µM, the IC50 ([2]; Homo sapiens, 96 h) is reported as > 10 µM and the IC50 ([3]; Homo sapiens, 96 h) is reported as > 10 µM. For the same molecule, the IC50 ([4]; Homo sapiens, KOPN-8, 96 h) was > 10 µM and the IC50 ([5]; Homo sapiens, MOLT-3, 96 h) was > 10 µM.

Source: paper PMC3176174 (OncoTargets and therapy, 2011)
